According to US4927808A, “γ-L-glutamyl-L-cysteine ethyl ester and pharmaceutical compositions containing the same as an effective ingredient” (Teijin Limited, priority 1986, dated 1990):
Where two headings read alike, the source gives them in different places.

Experiments:
[1] = system: liver cells; experiment: Mitigation of decrease in glutathione levels in liver cells on coexistence with D,L-buthionine sulfoximine; type: cell-based, mice; details: 13 hours later, 100 = before addition
Method: The cultured liver cells were cultured for 13 hours after the addition of D,L-buthionine sulfoximine to the concentration of 0.3 mM and the present compound to the concentration of 1 mM and then the levels of cellular glutathione were measured. The similar measurements were made on the controls in which nothing was added and in which D,L-buthionine sulfoximine only was added.

[2] = system: liver cells; experiment: Recovery of cellular glutathione levels after decrease by D,L-buthionine sulfoximine and removal of the inhibitor; type: cell-based, mice; details: untreated = 100
Method: (§1) D, L-buthionine sulfoximine was added to the cultured liver cells to a density of 0.5 mM and cultivation was carried on for 16 hours. […] The changes of cellular glutathione levels were measured at that time. Thereafter the compounds studied were removed from the respective cultures whose culture media were then replaced with new ones containing carbon tetrachloride at a density of 0.5 μl/ml. After 1-hour cultivation, the action to prevent the necrosis of liver cells was examined by measuring the GPT activity of the respective culture supernatants and Trypan Blue staining test.
(§2) In Table 3, the changes of cellular glutathione levels are expressed by relative values based on the untreated value set at 100 and the action to prevent the necrosis of liver cells is indicated by the GPT activity of the culture supernatant and survival rate.

[3] = system: liver cells; experiment: Recovery of glutathione levels of liver cells after carbon tetrachloride treatment; type: cell-based, mice; details: 100 = before treatment
Method: After carbon tetrachloride was added to the cultured liver cells at a concentration of 0.5 μl/ml, culture was continued for 1 hour. […] One hour later, the change of the cellular glutathione level was measured.

[4] = system: liver cells; experiment: Prevention of necrosis of liver cells by carbon tetrachloride (GPT activity, Trypan Blue staining); type: cell-based, mice; details: 1 mM for 2 hours after D,L-buthionine sulfoximine removal, then carbon tetrachloride 0.5 μl/ml for 1 hour; for Survival rate: Trypan Blue
Method: as §1, §2

[5] = system: experimentally developed cataract induced by L-buthionine sulfoximine; experiment: Protective effect on experimental cataract induced by L-buthionine sulfoximine; type: in vivo, mice; details: 16th day after birth
Source text: The cataract development rate in the table means the ratio of the experimental animals developing cataract to all the animals examined (11 to 12 mice per group) and the cataractous eye rate means the ratio of cataractous eyes to the whole number of eyes examined.

[6] = system: mouse newborns; details: for Surviving rate: after the ending of administration; for Effect on increment of animals' body weight suppressed by the toxicity of BSO: mouse, in vivo
Method: Experimental cataract was prepared according to the method of Calvin et al., Science, vol. 233, pp 553-555 (1986). More particularly, L-buthioninesulfoximine was administered subcutaneously to the ICR male mice at a dose of 4 mmol/kg for 3 successive days from the 9th day to the 11th day after birth every 2.5 hours 4 times a day to cause cataract. The rate of cataractgenesis was determined on the 16th day after birth. The test compounds were also given subcutaneously for 3 days from the 9th day to the 11th day after birth 4 times a day 1 hour before the administration of L-buthionine sulfoximine and thereafter the test compounds studied only were subcutaneously given 4 times a day at an interval of 2.5 hours on the consecutive 12th and 13th days after birth and the protective effect of the test compound on cataract formation was examined on the 16th day after birth. As the control compounds, glutathione, glutathione monoethyl ester, and γ-L-glutamyl-L-cysteine were also examined.
Acute toxicity of the present compound was examined where it is administered according to the schedule of Example 9 and compared with there of controls, glutathione, glutathione monoethyl ester, and γ-L-glutamyl-L-cysteine.

[7] = cited from earlier work
[8] = system: liver cells; experiment: Action to increase the glutathione levels in the liver cells (primary cultured hepatocytes); type: cell-based, mice; details: 1 mM, 100 = before addition
Method: Hepatocyte (sample) was prepared according to the method of Nakamura et al. published in the Protein, Nucleic Acid, and Enzyme, vol. 24, pp 55-76 (1981), partly adopting the method of Wang et al. reported in the In Vitro, vol. 21, pp 526-530 (1985). The liver of mice was purfused with 0.05% collagenase, and cells were collected by centrifugation, and were further centrifuged with percoll to collect the parenchymal hepatocytes. The obtained hepatocytes were dispersed in the Williams' medium E containing 10% bovine fetal serum, dexamethasone (10^-6 M), insulin (1 μg/ml), and antibiotic, and were inoculated into the culture plate at a density of 1×10^5 cells/0.2 ml/cm^2. After unattached cells were removed once 1.5 hours later, the cultivation was continued at 37° C. in an atomosphere of 5% CO2 -95% air. The compound of this invention was added to the culture system to a concentration of 1 mM to measure the time lapsed changes of the cellular glutathione level according to the method reported by Owens and Belcher, Biochem. J., vol. 94, pp 705-711 (1965) and Tietze, Anal. Biochem., vol. 27, pp 502-522 (1969). The similar measurements were also made without the addition of the compound for comparison.

[9] = system: ICR male mice; experiment: Action to increase tissue glutathione levels in mice; type: in vivo; details: 9-day old mice
Method: ICR male mice (9-day old) were subcutaneously given 2.5 mmol/kg of the compound of this invention (r-Glu-Cys OET) or control compounds (glutathione (GSH), γ-L-glutamyl-L-cysteine (r-Glu-Cys)) four times at 2.5-hour intervals. The mice were dissected and their livers and kidneys were removed before the administration and every 2.5 hour after the administration to have their glutathione (GSH) level determined. […]

[10] = system: ICR male mice; experiment: Mitigation of decrease of tissue glutathione levels, compound and L-buthionine sulfoximine given alternately to mice; type: in vivo; details: 2.5 mmol/kg s.c. alternately with L-buthionine sulfoximine 4 mmol/kg; versus saline
Method: The compound of this invention was administered in the same way as Example 6, and L-buthionine sulfoximine (BSO) was administered likewise in dosage of 4 mmol/kg one hour after every administration of said compound. The contents of glutathione in the livers and kedneys were measured according to the methods described in Example 6 every 2.5 hours after the initial administration of the present compound. As controls, saline was administered in place of the present compound to take the similar measurements. FIGS. 2A and 2B shown the results.

[11] = system: ICR male mice; experiment: Recovery of tissue glutathione levels in mice pretreated with L-buthionine sulfoximine; type: in vivo; details: 2.5 mmol/kg s.c. 4 times, day after L-buthionine sulfoximine 4 mmol/kg x4
Method: ICR male mice (9-day old) were given L-buthionine sulfoximine in dosage of 4 mmol/kg four times at an interval of 2.5 hours to decrease their tissue glutathione levels beforehand. The next day, the mice were given subcutaneously 2.5 mmol/kg of the present compound or saline 4 times at an interval of 2.5 hours. Glutathione monoethyl ester (GSHOET) was also given likewise in dosage of 2.5 mmol/kg as a control. The contents of glutathione in the livers and kidneys were measured according to the methods described in Example 6.

[12] = system: ICR male mice; experiment: Detoxification of renal toxicity induced by cisplatin (BUN); type: in vivo; details: cisplatin 20 mg/kg i.p. + compound 2.5 mmol/kg i.p. 4 times a day for 5 days; one week after cisplatin
Source text: The control groups were given saline instead of the present compound.

[13] = 1 mM added for 2 hours after removal of D,L-buthionine sulfoximine (0.5 mM, 16 hours)
[14] = L-buthionine sulfoximine + compound 1.25 mmol/kg s.c.
[15] = L-buthionine sulfoximine + compound 1.25 mmol/kg
[16] = L-buthionine sulfoximine + compound 2.5 mmol/kg
[17] = L-buthionine sulfoximine 4 mmol/kg alone
[18] = L-buthionine sulfoximine + compound 2.50 mmol/kg s.c.
[19] = 2.5 mmol/kg subcutaneously four times at 2.5-hour intervals

SMILES: CCCCS(=N)(=O)CCC(N)C(=O)O [D,L-buthionine sulfoximine, D,L-buthionine-sulfoximine, reference compound]
- Cellular glutathione level (relative value) ([1]; D,L-buthionine sulfoximine 0.3 mM alone): 17
- Cellular glutathion level (relative value) ([2]; D,L-buthionine sulfoximine 0.5 mM, 16 hours): 1

SMILES: ClC(Cl)(Cl)Cl [carbon tetrachlodie, carbon tetrachloride, reference compound]
- Cellular glutathione level (relative value) ([3]; after carbon tetrachloride 0.5 μl/ml, 1 hour): 33

SMILES: N[C@@H](CCC(=O)N[C@@H](CS)C(=O)NCC(=O)O)C(=O)O [Glutathione, glutathione]
- Cellular glutathion level (relative value) [2, 13]: 10
- GPT activity of culture supernatant [4]: 60 until/ml
- Survival rate [4]: 10%
- Cataract development rate [5, 14]: 75.0%
- Cataractous eye rate [5, 14]: 70.8%
- Surviving rate [6, 15]: 100%
- Surviving rate [6, 16]: 50%
- Effect on increment of animals' body weight suppressed by the toxicity of BSO [6]: such effect was not seen
- half life in blood [7]: several minutes

SMILES: N[C@@H](CCC(=O)N[C@@H](CS)C(=O)O)C(=O)O [γ-L-glutamyl-L-cysteine]
- Cellular glutathion level (relative value) [2, 13]: 10
- GPT activity of culture supernatant [4]: 60 until/ml
- Survival rate [4]: 10%
- Cataract development rate [5, 14]: 66.7%
- Cataractous eye rate [5, 14]: 77.8%
- Surviving rate [6, 15]: 75%
- Surviving rate [6, 16]: 0%
- Effect on increment of animals' body weight suppressed by the toxicity of BSO [6]: such effect was not seen

SMILES: CCCCS(=N)(=O)CCC(N)C(=O)O [L-buthionine sulfoximine, reference compound]
- Cataract development rate [5, 17]: 91.7%
- Cataractous eye rate [5, 17]: 91.7%
- Surviving rate [6, 17]: 100%

SMILES: CCOC(=O)[C@H](CSSC[C@H](NC(=O)CC[C@H](N)C(=O)O)C(=O)OCC)NC(=O)CC[C@H](N)C(=O)O [γ-L-glutamyl-L-cystein ethyl ester of oxidized type dimer]
- Cataract development rate [5, 18]: 30.0%
- Cataractous eye rate [5, 18]: 35.0%
- Surviving rate [6, 16]: 100%

SMILES: CCOC(=O)[C@H](CS)NC(=O)CC[C@H](N)C(=O)O [γ-L-glutamyl-L-cysteine ethyl ester]
- Cellular glutathione level (relative value) ([8]; 0.5 hours): 140
- Cellular glutathione level (relative value) ([8]; 1 hour): 170
- Cellular glutathione level (relative value) ([8]; 2 hours): 200
- Cellular glutathione level (relative value) ([1]; coexistence of D,L-buthionine sulfoximine 0.3 mM and compound 1 mM): 30
- Cellular glutathion level (relative value) [2, 13]: 50
- GPT activity of culture supernatant [4]: 3 until/ml
- Survival rate [4]: 100%
- Cellular glutathione level (relative value) ([3]; 1 mM added after removal of carbon tetrachloride, one hour later): 67
- Tissue glutathione level, kidney (FIG. 1B) [9, 19]: far more excellent effect than glutathione and γ-L-glutamyl-L-cysteine in increasing the tissue glutathione levels
- Tissue glutathione level, liver (FIG. 1A) [9, 19]: far more excellent effect than glutathione and γ-L-glutamyl-L-cysteine in increasing the tissue glutathione levels
- SH levels in eyeballs, DTNB method (FIG. 1C) ([9]; 5 mmol/kg): improve the SH levels remarkably
- Tissue glutathione level, kidney (FIG. 2B) [10]: mitigate the decrease of tissue glutathione levels
- Tissue glutathione level, liver (FIG. 2A) [10]: mitigate the decrease of tissue glutathione levels
- Recovery of tissue glutathione level, kidney (FIG. 3B) [11]: far more excellent effect in making the tissular glutathion level recover to the normal level as compared with glutathione monoethyl ester
- Recovery of tissue glutathione level, liver (FIG. 3A) [11]: same effectiveness as glutathione monoethyl ester
- Cataract development rate [5, 14]: 50.0%
- Cataractous eye rate [5, 14]: 41.7%
- Cataract development rate [5, 18]: 0%
- Cataractous eye rate [5, 18]: 0%
- Effect on increment of animals' body weight suppressed by the toxicity of BSO [6]: showed an effect to mitegate suppressed increment of animals' body weight
- BUN [12]: 35.7 mg/dL
